{
  "source": "patent US20220388957A1",
  "about": "“COMPOUNDS AND COMPOSITIONS FOR TREATING CONDITIONS ASSOCIATED WITH STING ACTIVITY” (IFM Due, Inc., priority 2019, published 2022)",
  "molecular_target": "T1, Human STING (Homo sapiens, UniProt Q86WV6, G230A/H232R/R293Q/R71H)",
  "T1 construct": "host or cells: THP1-Dual KO-IFNAR2 cells (human monocytic reporter line)",
  "T1 sequence (Q86WV6 whole entry R71H/G230A/H232R/R293Q)": "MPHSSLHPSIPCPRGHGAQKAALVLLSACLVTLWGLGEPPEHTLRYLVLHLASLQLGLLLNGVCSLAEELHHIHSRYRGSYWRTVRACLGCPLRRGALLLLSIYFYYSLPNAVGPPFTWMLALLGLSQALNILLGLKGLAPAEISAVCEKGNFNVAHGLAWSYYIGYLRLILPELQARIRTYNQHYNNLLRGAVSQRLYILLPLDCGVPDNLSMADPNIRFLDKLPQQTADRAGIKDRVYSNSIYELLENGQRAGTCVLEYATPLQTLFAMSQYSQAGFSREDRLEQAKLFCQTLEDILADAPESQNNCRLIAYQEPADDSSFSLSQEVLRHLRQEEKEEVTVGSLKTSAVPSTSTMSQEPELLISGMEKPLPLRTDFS",
  "experiment": "STING reporter assay (luciferase) in THP1-Dual KO-IFNAR2 cells stimulated with 2′3′cGAMP",
  "type": "cell-based",
  "conditions": "2′3′cGAMP 15 μM, 24 h",
  "protocol": "STING pathway activation by the compounds described herein was measured using THP1-Dual™ cells (KO-IFNAR2).\nTHP1-Dual™ KO-IFNAR2 Cells (obtained from invivogen) were maintained in RPMI, 10% FCS, 5 ml P/S, 2 mM L-glut, 10 mM Hepes, and 1 mM sodium pyruvate. Compounds were spotted in empty 384 well tissue culture plates (Greiner 781182) by Echo for a final concentration of 0.0017-100 μM. Cells were plated into the TC plates at […], 2×10E6 cells/mL. For activation with STING ligand, 2′3′cGAMP (MW 718.38, obtained from Invivogen), was prepared in Optimem media.\nThe following solutions were prepared for each 1×384 plate: • o Solution A: 2 mL Optimem with one of the following stimuli: • 60 uL of 10 mM 2′3′cGAMP->150 μM stock • Solution B: 2 mL Optimem with 60 μL Lipofectamine 2000->Incubate 5 min at RT\n2 mL of solution A and 2 ml Solution B was mixed and incubated for 20 min at room temperature (RT). 20 μL of transfection solution (A+B) was added on top of the plated cells, with a final 2′3′cGAMP concentration of 15 μM. The plates were then centrifuged immediately at 340 g for 1 minute, after which they were incubated at 37° C., 5% CO2, >98% humidity for 24 h. Luciferase reporter activity was then measured. EC50 values were calculated by using standard methods known in the art.\nLuciferase reporter assay: 10 μL of supernatant from the assay was transferred to white 384-plate with flat bottom and squared wells. One pouch of QUANTI-Luc™ Plus was dissolved in 25 mL of water. 100 μL of QLC Stabilizer per 25 mL of QUANTI-Luc™ Plus solution was added. 50 μL of QUANTI-Luc™ Plus/QLC solution per well was then added. Luminescence was measured on a Platereader (e.g., Spectramax I3X (Molecular Devices GF3637001)).\nLuciferase reporter activity was then measured. EC50 values were calculated by using standard methods known in the art.",
  "data": [
    {"smiles": "O=S(=O)(Nc1c[nH]nc1-c1ccccc1)c1ccc(C(F)(F)F)cc1", "note": "[Compound 106]", "values": [
      {"measurement": "EC50", "setting": "class symbols", "value": "5 to 100", "unit": "µM"}
    ]},
    {"smiles": "O=S(=O)(Cc1cccc(C(F)(F)F)c1)Nc1c[nH]c2cc(F)c(F)cc12", "note": "[Compound 131, N-(5,6-difluoro-1H-indol-3-yl)-1-(3-(trifluoromethyl)phenyl) methanesulfonamide]", "values": [
      {"measurement": "EC50", "setting": "class symbols", "value": "5 to 100", "unit": "µM"}
    ]},
    {"smiles": "CCCCCCCCS(=O)(=O)Nc1c[nH]c2cc(F)c(F)cc12", "note": "[Compound 128, N-(5,6-difluoro-1H-indol-3-yl)octane-1-sulfonamide]", "values": [
      {"measurement": "EC50", "setting": "class symbols", "value": "1 to 5", "unit": "µM"}
    ]},
    {"smiles": "CC1CNCCC1NS(=O)(=O)c1c[nH]c2nccc(Cl)c12", "note": "(stereo not shown) [Compound 112]", "values": [
      {"measurement": "EC50", "setting": "numeric bound", "value": "> 100", "unit": "µM"}
    ]},
    {"smiles": "CC(C)c1ccc(S(=O)(=O)Nc2c[nH]c3cc(F)c(F)cc23)cc1", "note": "[Compound 141, N-(5,6-difluoro-1H-indol-3-yl)-4-isopropylbenzene-sulfonamide]", "values": [
      {"measurement": "EC50", "setting": "class symbols", "value": "5 to 100", "unit": "µM"}
    ]},
    {"smiles": "O=S(=O)(Nc1c[nH]c2cc(F)c(F)cc12)c1ccc2c(c1)CCC2", "note": "[Compound 135, N-(5,6-difluoro-1H-indol-3-yl)-2,3-dihydro-1H-indene-5-sulfonamide]", "values": [
      {"measurement": "EC50", "setting": "class symbols", "value": "5 to 100", "unit": "µM"}
    ]},
    {"smiles": "O=S(=O)(Nc1c[nH]c2cc(F)c(F)cc12)c1ccc2c(c1)CCCC2", "note": "[Compound 139, N-(5,6-difluoro-1H-indol-3-yl)-5,6,7,8-tetrahydro-naphthalene-2-sulfonamide]", "values": [
      {"measurement": "EC50", "setting": "class symbols", "value": "5 to 100", "unit": "µM"}
    ]}
  ]
}
